From paper PMC8910432 (International Journal of Molecular Sciences, 2022) come the findings set out here.

In assay [1] the target is RBD (N501Y) spike protein and human ACE2 (Severe acute respiratory syndrome coronavirus 2, UniProt P0DTC2, N501Y). The assay is classed as binding, SARS-CoV-2; human. The settings on record: for inhibitory effect on interaction between RBD (N501Y) spike protein and human ACE2: 10 µM.
For a further assay, the target named is RBD (N501Y) (Severe acute respiratory syndrome coronavirus 2, UniProt P0DTC2, N501Y). Format: binding, SARS-CoV-2.

Take `OC[C@H]1O[C@@H](Oc2cc3c(O)cc(O)cc3[o+]c2-c2ccc(O)cc2)[C@H](O)[C@@H](O)[C@@H]1O` [pelargonidin-3-O-glucoside]: in assay [1], the “inhibitory effect on interaction between RBD (N501Y) spike protein and human ACE2” value (“inhibitory effect” below) was “only TA, TGG, and corilagin show a significant inhibitory effect”.

In the case of `COc1cc(-c2[o+]c3cc(O)cc(O)c3cc2O[C@@H]2O[C@H](CO)[C@@H](O)[C@H](O)[C@H]2O)cc(OC)c1O` [malvidin-3-O-glucoside], in assay [1], the “inhibitory effect” value is “only TA, TGG, and corilagin show a significant inhibitory effect”.

For the molecule `O=C(OC[C@H]1OC(OC(=O)c2cc(O)c(O)c(OC(=O)c3cc(O)c(O)c(O)c3)c2)[C@H](OC(=O)c2cc(O)c(O)c(OC(=O)c3cc(O)c(O)c(O)c3)c2)[C@@H](OC(=O)c2cc(O)c(O)c(OC(=O)c3cc(O)c(O)c(O)c3)c2)[C@@H]1OC(=O)c1cc(O)c(O)c(OC(=O)c2cc(O)c(O)c(O)c2)c1)c1cc(O)c(O)c(OC(=O)c2cc(O)c(O)c(O)c2)c1` (stereo partly drawn) [TA, 1,2,3,4,6-penta-O-{3,4-dihydroxy-5-((3,4,5-trihydroxybenzoyl)oxy)benzoyl}-D-glucopyranose], in assay [1], the “concentration from which inhibition is significant” value is at least 0.1 µM; the “reduction of the binding between RBD (N501Y) spike protein and ACE2” value is recorded as “up to 95%”; the “inhibitory effect” value is reported as “up to 50%”. Also, on RBD (N501Y), the “TA adsorption onto RBD (QCMD)” value is “amount of TA adsorbed increases with TA concentration”.

Regarding `O=C(OC[C@H]1O[C@@H](OC(=O)c2cc(O)c(O)c(O)c2)[C@H](O)[C@@H](OC(=O)c2cc(O)c(O)c(O)c2)[C@@H]1O)c1cc(O)c(O)c(O)c1` [TGG, 1,3,6-tri-O-galloyl-β-D-glucose], in assay [1], the “concentration from which inhibition is significant” value was at least 0.1 µM; the “inhibitory effect” value was “up to 50%”.

For the molecule cyanidin-3-O-glucoside, the “inhibitory effect” value in assay [1] is “only TA, TGG, and corilagin show a significant inhibitory effect”.

`O=C(O[C@@H]1O[C@@H]2COC(=O)c3cc(O)c(O)c(O)c3-c3c(cc(O)c(O)c3O)C(=O)O[C@H]([C@H]1O)[C@@H]2O)c1cc(O)c(O)c(O)c1` [corilagin, β-1-O-galloyl-3,6-(R)-hexahydroxydiphenoyl-D-glucose]: in assay [1], the “concentration from which inhibition is significant” value is listed as at least 0.1 µM; the “inhibitory effect” value is “up to 50%”.
